The values below are quoted from earlier work in patent US12127968B2, “Methods and devices for controlled delivery” (Femasys Inc., priority 2018, dated 2024).

Structures can show the parent of a compound that is named as a salt.

This data set has as its system ovulation. The following applies: patients whose only factor is ovulatory dysfunction.

Turning to `CCN(CC)CCOc1ccc(C(=C(Cl)c2ccccc2)c2ccccc2)cc1` [Clomiphene citrate], the “patients in whom normal ovulation is restored” value was “about 80%”.
